Results: US7534811B2, “Cyclic onium compounds and glucosidase inhibitors” (Kinki University, priority 2003, dated 2009)

Tests used:
[1] = target: small intestinal α-glucosidase (maltase); assay: Concentration for 50% inhibition, small intestinal α-glucosidase, maltose substrate; format: biochemical; conditions: rat intestinal brush border membrane vesicles; substrate maltose (74 mM); pH6.0; 37° C., 30 minutes
Experimental: (§1) Rat intestinal brush border membrane vesicles were prepared, and a suspension in a 0.1M maleic acid salt buffer solution (pH6.0) was used as small intestinal α-glucosidase (maltase and saccharase).
(§2) 0.05 ml of sample compound solutions of differing concentration were added, respectively, to 0.1 ml of a substrate solution of sucrose (74 mM) and maltose (74 mM), and the solution was preheated at 37° C. for 2 to 3 minutes. 0.05 ml of an enzymatic solution was added thereto and the solution was allowed to incubate for 30 minutes. After incubation, 0.8 ml of water was added thereto and the solution was heated in a boiling water bath for 2 minutes to deactivate the enzyme. Blank was prepared as follows. After the enzymatic solution was added to each sample, water was immediately added, and the resulting mixture was heated in a boiling water bath for 2 minutes to deactivate the enzyme. The amount of d-glucose formed therein was measured using a glucose oxidase method. The substrate and test samples were dissolved in a 0.1M maleic acid buffer solution (pH6.0). The concentrations for 50% inhibition (IC50) were calculated based on the values obtained.

[2] = target: T1, small intestinal α-glucosidase (saccharase) (Rattus norvegicus, UniProt P23739); assay: Concentration for 50% inhibition, small intestinal α-glucosidase, sucrose substrate; format: biochemical; conditions: rat intestinal brush border membrane vesicles; substrate sucrose (74 mM); pH6.0; 37° C., 30 minutes; read-out: IC50 (μg/ml) Sucrose (converted)
T1 construct: Rat intestinal brush border membrane vesicles were prepared; from tissue; host or cells: rat small intestine, brush border membrane vesicles
Experimental: as §1, §2

T1 sequence (P23739 whole entry): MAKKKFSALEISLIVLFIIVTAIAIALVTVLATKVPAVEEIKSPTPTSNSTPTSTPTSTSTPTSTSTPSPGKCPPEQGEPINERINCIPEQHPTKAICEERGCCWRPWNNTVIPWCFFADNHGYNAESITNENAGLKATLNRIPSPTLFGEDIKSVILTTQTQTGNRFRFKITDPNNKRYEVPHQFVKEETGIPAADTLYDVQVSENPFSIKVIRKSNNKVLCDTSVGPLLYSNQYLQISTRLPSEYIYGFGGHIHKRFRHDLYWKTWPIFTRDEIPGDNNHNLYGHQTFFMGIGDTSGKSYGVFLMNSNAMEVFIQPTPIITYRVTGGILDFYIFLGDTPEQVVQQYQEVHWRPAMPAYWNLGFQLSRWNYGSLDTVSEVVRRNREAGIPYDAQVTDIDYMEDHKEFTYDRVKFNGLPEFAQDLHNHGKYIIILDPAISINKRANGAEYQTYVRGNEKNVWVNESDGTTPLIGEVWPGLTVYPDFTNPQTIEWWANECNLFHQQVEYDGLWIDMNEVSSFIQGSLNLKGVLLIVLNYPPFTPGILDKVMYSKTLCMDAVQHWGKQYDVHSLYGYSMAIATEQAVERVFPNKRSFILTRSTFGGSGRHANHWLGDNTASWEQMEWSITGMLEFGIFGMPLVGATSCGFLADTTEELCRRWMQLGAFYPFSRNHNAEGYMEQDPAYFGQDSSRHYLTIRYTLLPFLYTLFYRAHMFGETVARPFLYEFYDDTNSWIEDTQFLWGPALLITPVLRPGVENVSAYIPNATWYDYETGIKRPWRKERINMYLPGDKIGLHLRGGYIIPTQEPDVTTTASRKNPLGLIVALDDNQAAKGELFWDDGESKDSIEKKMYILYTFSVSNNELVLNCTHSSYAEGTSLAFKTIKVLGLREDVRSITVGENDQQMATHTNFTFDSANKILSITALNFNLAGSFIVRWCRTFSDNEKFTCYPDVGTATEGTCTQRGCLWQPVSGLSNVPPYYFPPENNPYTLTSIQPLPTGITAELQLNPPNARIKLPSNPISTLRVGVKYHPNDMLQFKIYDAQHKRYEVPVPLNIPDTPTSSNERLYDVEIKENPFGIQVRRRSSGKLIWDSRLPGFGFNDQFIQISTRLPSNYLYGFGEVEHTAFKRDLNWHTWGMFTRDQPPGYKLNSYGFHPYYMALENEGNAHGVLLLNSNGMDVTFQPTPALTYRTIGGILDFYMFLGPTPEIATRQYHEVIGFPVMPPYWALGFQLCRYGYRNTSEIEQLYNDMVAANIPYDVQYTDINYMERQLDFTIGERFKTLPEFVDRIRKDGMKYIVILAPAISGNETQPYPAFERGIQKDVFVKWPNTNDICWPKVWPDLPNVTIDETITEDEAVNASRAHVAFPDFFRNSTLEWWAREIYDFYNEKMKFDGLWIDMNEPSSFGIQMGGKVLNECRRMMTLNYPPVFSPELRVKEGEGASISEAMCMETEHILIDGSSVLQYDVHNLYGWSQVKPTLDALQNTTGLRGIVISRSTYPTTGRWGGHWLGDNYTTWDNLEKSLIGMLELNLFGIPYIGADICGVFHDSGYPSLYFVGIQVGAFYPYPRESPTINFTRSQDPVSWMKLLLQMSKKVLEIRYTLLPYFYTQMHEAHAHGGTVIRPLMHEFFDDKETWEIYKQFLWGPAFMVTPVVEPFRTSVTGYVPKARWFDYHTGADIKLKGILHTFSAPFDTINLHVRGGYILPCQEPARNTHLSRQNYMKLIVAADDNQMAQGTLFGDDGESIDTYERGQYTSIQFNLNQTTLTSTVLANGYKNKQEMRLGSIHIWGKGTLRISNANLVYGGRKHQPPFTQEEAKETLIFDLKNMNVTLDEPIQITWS

Compound | IC50 (μg/ml) Maltose [1] [µg/mL] | IC50 [2] [µM]
OC[C@@H]1[C@@H](O)[C@H](O)C[S@@+]1C[C@@H](O)[C@@H](O)CO [Compound 1] | 5.71 | 5.29
C[S+]1C[C@H](O)[C@@H](O)[C@@H]1CO (stereo partly shown) [Compound 2] | 79.3 | 339
